Measurements from patent US20250099420A1, “SMALL MOLECULE MODULATORS OF GPR139 COMPLEX” (University of Florida Research Foundation, Incorporated, priority 2022, published 2025).
Where two headings read alike, the source gives them in different places.

Legend:
parental HEK cells = assay: HEK parental Agonist Counterscreen Assay (non-transfected cells); assay type: cell-based; settings: for Averaged Max % Response (±St. Dev.): activity relative to known control
Source text: The high control for the agonist counterscreen was Forskolin not acetylcholine.

GPR139 = target: T1, GPR139 (Homo sapiens, UniProt Q6DWJ6); assay: GPR139 Agonist titration / agonist counterscreen assay (calcium detection, HEK-GPR139 cells); assay type: cell-based; set-up: expressed in transfected cells; host or cells: HEK Aequorin cells, Maxcyte transient transfection; settings: GPR139 Agonist Activity; for Averaged Max % Response (±St. Dev.): activity relative to known control; for EC50: read-out: EC50
T1 sequence (Q6DWJ6 1-353): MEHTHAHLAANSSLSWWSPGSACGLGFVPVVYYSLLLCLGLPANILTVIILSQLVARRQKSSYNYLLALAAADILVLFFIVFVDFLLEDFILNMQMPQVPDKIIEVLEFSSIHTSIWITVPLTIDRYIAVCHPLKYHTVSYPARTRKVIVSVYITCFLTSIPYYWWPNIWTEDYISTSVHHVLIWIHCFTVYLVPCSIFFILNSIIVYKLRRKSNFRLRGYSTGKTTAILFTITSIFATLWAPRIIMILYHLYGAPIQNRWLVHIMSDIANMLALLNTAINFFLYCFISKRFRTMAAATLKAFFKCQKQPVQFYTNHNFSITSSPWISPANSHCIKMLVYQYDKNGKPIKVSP
Method: GPR activity was assessed using a calcium detection assay. […] Negative control samples were treated with DMSO. […] Intracellular calcium was measured using Calcium 5.

[1] = Homo sapiens, HEK293, HEK Agonist Activity section of Table 4 (parental HEK counterscreen)
[2] = values printed in E-notation without unit
[3] = Homo sapiens, HEK293, HEK Agonist Activity, parental non-transfected HEK cells
[4] = HEK Agonist Activity, parental non-transfected HEK cells

SMILES	Lipophilic Efficiency (logD) (parental HEK cells; HEK Agonist Activity section)	Lipophilic Efficiency (logP) (parental HEK cells; HEK Agonist Activity section)	Averaged Max % Response (±St. Dev.) (parental HEK cells; HEK Agonist Activity section) [%]	EC50 (parental HEK cells; [1]) [nM]	Averaged Max % Response (±St. Dev.) (GPR139) [%]	Lipophilic Efficiency (logD) (GPR139; based on logD)	Lipophilic Efficiency (logP) (GPR139; based on logP)	Hill Slope (GPR139; fitted dose-response curve)	Efficiency Ligand (GPR139; ligand efficiency)	EC50 (GPR139; [2]) [nM]	Efficiency Ligand (GPR139)	Hill Slope (GPR139)	Lipophilic Efficiency (logD) (GPR139)	Lipophilic Efficiency (logP) (GPR139)	EC50 (GPR139; HEK-GPR139 cells) [nM]	Lipophilic Efficiency (logD) (parental HEK cells; HEK Agonist Activity)	Lipophilic Efficiency (logP) (parental HEK cells; HEK Agonist Activity)	Averaged Max % Response (±St. Dev.) (parental HEK cells; HEK Agonist Activity) [%]	EC50 (parental HEK cells; [3]) [nM]	EC50 (parental HEK cells; [4]) [nM]
COc1ccccc1-c1nnc(NC(=O)Cc2ccc(C)cc2C)o1 [SR-01000915644]	1.25	1.25	−2.94 ± 0.56	> 14100	98.09 ± 3.30	3.69	3.69	0.31	0.41	51										
C=C(CC1C=CC2=C1c1ccccc1CC2)Nc1ccc(CC)cc1 (stereo not drawn) [SR-01000098976]	2.53	2.53	25.21 ± 6.04	> 14100	103.10 ± 11.12	4.60	4.60	0.87	0.39											
CCN1CCCc2cc(CCNC(=O)Nc3ccccc3)ccc21 [SR-01000923250]	0.79	0.79	−2.96 ± 8.90	> 14100	67.60 ± 3.63						0.35	0.64	1.87	1.86	1200					
O=C(Cn1ccc([N+](=O)[O-])n1)NCCc1ccc(Cl)cc1 [SR-01000299915]					99.72 ± 18.10	5.86	5.86	1.13	0.55	5						2.40	2.40	2.39 ± 2.18	> 14100	
Cc1c2cnn(CC(=O)NC(C)c3ccccc3)c(=O)c2c(C)n1Cc1ccc(F)cc1 (stereo not drawn) [SR-01000138428]					81.78 ± 16.61	4.85	4.85		0.38							1.03	1.03	−0.31 ± 7.41		> 14100
CCn1c(=O)n(CC(=O)NCC2COc3ccccc3O2)c(=O)c2ccccc21 (stereo not drawn) [SR-01000589950]					90.30 ± 31.36	5.98	5.98	0.72	0.36	36.4						3.39	3.39	−9.62 ± 21.31	> 14100	
COc1cc(C(C)=O)ccc1OCC(=O)OCC(=O)NCCCc1ccccc1 [SR-01000056458]	2.66	2.66	19.25 ± 6.92	> 14100	119.47 ± 9.11	5.10	5.10	0.52	0.35	50.9										
COP(=O)(CN(CCc1ccc(Cl)cc1)C(=O)Nc1ccc(Cl)c(Cl)c1)OC [SR-01000584158]					123.61 ± 28.77	2.25	2.25	0.47	0.37	36.6						−0.34	−0.34	0.77 ± 6.52		> 14100
COC(=O)c1ccc(NC(=O)CNC(=O)C2CCCCC2)c(C)c1 [SR-01000246445]	2.12	2.12	30.43 ± 4.82	> 14100	77.11 ± 5.52						0.36	1.22	3.52	3.52	554					
COc1cc(OC)cc(C(=O)NNC(=O)CCc2ccccc2)c1 [SR-01000359572]	2.65	2.65	6.12 ± 4.61	> 14100	100.90 ± 10.01						0.37	0.98	4.18	4.18	418					
O=C(NCCn1ccc2ccccc21)c1cccc(Cl)c1 [SR-01000124131]	1.08	1.08	−0.13 ± 10.83	> 14100	93.55 ± 12.47						0.42	0.85	2.55	2.55	472					
Cc1ccc(Nc2cn[nH]c(=S)n2)c(C)c1 [SR-01000013346]	2.37	1.95	−4.67 ± 3.34	> 14600	74.67 ± 0.55						0.54	0.99	3.66	3.24	743					
O=C(CN1CCN(Cc2ccccc2F)C1=O)NCCc1ccc(Cl)cc1 [SR-01000125584]	2.11	2.11	0.37 ± 17.31	> 14100	103.06 ± 30.95	4.59	4.59	0.81	0.38	47.1										
Cc1ccc(CCNC(=O)CN2CCN(Cc3ccccc3Cl)C2=O)cc1 [SR-01000125464]	1.74	1.74	5.57 ± 17.96	> 14100	83.25 ± 20.00	3.74	3.74	0.73	0.35	143										
CCOc1ccc(C(=O)NCCc2ccc(F)cc2)cc1OCC [SR-01000243797]	1.25	1.25	10.10 ± 12.81	> 14100	105.74 ± 4.40	3.09	3.09	1.05	0.39	205										
